# Active and inactive are the calls of the source.
# Key:
# [1] = target: Glutathione-S-transferase (Schistosoma japonicum, UniProt Q26513); assay: GST-antibody interaction or FRET quenching – biochemical, TR-FRET, artefact control for Vif-APOBEC3G degradation inhibitor project, dose response (AID 1117362); type: functional
# [2] = viability loss in THP-1 monocytes – THP-1 cells, cytotoxicity control for Vif-APOBEC3G degradation inhibitor project, dose response (AID 1117359); type: functional; details: THP-1
# [3] = target: Solute carrier family 12 member 2/member 5 (Homo sapiens, UniProt P55011+Q9H2X9); assay: KCC2 and NKCC1 inhibition by rubidium flux, cell-based, NKCC1 counter-screen (AID 1734); type: functional, HEK293
# [4] = HIV-1 Vif–A3G interaction blockers – biochemical, TR-FRET, GST-Vif 1-94, biotin-A3G peptide, dose response retest, primary screen (AID 1117319); type: functional;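 note: TR-FRET signal of purified GST-Vif binding a biotinylated A3G peptide; inhibitors lower the FRET signal by blocking Vif and A3G binding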
# [5] = target: NAD-dependent protein deacylase sirtuin-5, mitochondrial (Homo sapiens, UniProt Q9NXA8); assay: sirtuin-5 deacylation blockers, concentration series – biochemical, fluorescence imaging, cherry-pick, set 5, dose response (AID 720591);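 note: desuccinylation of succinyl peptide AMC substrate read as fluorescence after trypsin release; potency of inhibitors that lower fluorescence and may act on trypsin instead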
# [6] = viability loss in Vero cells – cytotoxicity control for Vif-APOBEC3G degradation inhibitor project, dose response (AID 1117358); type: functional; details: Vero
# [7] = A Cell Based Secondary Assay To Explore Cytotoxicity of Compounds that Sensitize Mycobacterium Tuberculosis to Beta-Lactam Antibiotics.; type: functional
# [8] = target: T1, Heat shock factor protein 1 (Mus musculus, UniProt P38532); assay: enhancement of HSF1-driven luciferase signal – cell-based, NIH3T3, luminescence, dose retest, confirmation (AID 435004); type: functional;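 note: stress induced by proteasome inhibitor MG132 added 30 min after compound; luciferase reporter driven by HSF1 response element in NIH3T3 cells; actives raise luminescence as potentiators of the MG132 stress response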
# T1 sequence (P38532 whole entry): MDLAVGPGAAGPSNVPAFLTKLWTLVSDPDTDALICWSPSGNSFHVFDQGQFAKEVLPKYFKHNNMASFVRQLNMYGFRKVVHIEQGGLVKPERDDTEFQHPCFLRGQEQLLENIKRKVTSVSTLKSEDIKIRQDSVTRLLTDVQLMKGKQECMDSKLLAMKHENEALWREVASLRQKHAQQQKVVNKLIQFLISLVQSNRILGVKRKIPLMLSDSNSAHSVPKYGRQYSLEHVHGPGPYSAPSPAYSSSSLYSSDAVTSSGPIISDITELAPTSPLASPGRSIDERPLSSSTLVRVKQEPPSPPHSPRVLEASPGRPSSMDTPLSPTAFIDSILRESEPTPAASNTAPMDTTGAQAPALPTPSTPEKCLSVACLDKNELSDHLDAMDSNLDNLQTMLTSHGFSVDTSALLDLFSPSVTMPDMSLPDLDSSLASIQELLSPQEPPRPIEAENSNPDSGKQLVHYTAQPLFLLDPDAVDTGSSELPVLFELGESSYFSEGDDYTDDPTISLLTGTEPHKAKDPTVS
# cells [9] = details: A549
# [10] = viability loss in HepG2 liver cells – cell-based, ATP luminescence, cherry-pick, set 6, cytotoxicity control, dose response (AID 1053125); type: functional
# cells [11] = assay: cells
# [12] = miR-122 quantity in Huh7 after inhibitor exposure – cell-based, RT-qPCR, dry powder, orthogonal assay for miR-122 inhibitor project, dose response (AID 687041); type: functional
# [13] = viability loss in MITF-independent A375 cells – cell-based, CellTiter-Glo luminescence, dry powder, set 7, counter-screen for MITF inhibitor project, dose response (AID 624490); type: functional; details: A-375
# [14] = MITF Orthogonal Assay: SK-MEL-5 CTG Assay Measured in Cell-Based System Using Plate Reader - 2084-02_Inhibitor_Dose_DryPowder_Activity_Set5.; type: functional
# [15] = cytotoxicity in melanoma parental cells – cell-based, CellTiter-Glo, dry powder, set 6, MITF inhibitor project, dose response (AID 624429); type: functional; details: SK-MEL-5
# [16] = MITF Measured in Cell-Based System Using Plate Reader - 2084-01_Inhibitor_Dose_DryPowder_Activity_Set6.; type: functional
# [17] = MITF Measured in Cell-Based System Using Plate Reader - 2084-01_Inhibitor_Dose_DryPowder_Activity_Set7.; type: functional
# [18] = general mammalian cell viability loss – activator set, cherry-pick, cytotoxicity control for miR-122 modulator project, dose response (AID 720690); type: functional, cell-based;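 note: HEK293T human cells scored for general mammalian cytotoxicity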
# [19] = viability loss in HEK293 kidney cells – cell-based, cherry-picks, set 5, cytotoxicity control, dose response (AID 1053117); type: functional
# [20] = inhibition of fibronectin matrix deposition – AH1F cells, Alexa488-fibronectin fluorescence, cherry-pick, set 2, dose response (AID 1117283); type: functional, cell-based
# [21] = target: Metabotropic glutamate receptor 5 (Rattus norvegicus, UniProt P31424); assay: Identification of a glycine sulfonamide based non-MPEP site positive allosteric potentiator (PAM) of mGlu5 (calcium_assay).; type: functional
# Phospholipase D1 [22] = target: T2, Phospholipase D1 (Homo sapiens, UniProt Q13393); assay: PLD1 Cellular Concentration Response Study.; type: functional
# T2 sequence (Q13393 whole entry): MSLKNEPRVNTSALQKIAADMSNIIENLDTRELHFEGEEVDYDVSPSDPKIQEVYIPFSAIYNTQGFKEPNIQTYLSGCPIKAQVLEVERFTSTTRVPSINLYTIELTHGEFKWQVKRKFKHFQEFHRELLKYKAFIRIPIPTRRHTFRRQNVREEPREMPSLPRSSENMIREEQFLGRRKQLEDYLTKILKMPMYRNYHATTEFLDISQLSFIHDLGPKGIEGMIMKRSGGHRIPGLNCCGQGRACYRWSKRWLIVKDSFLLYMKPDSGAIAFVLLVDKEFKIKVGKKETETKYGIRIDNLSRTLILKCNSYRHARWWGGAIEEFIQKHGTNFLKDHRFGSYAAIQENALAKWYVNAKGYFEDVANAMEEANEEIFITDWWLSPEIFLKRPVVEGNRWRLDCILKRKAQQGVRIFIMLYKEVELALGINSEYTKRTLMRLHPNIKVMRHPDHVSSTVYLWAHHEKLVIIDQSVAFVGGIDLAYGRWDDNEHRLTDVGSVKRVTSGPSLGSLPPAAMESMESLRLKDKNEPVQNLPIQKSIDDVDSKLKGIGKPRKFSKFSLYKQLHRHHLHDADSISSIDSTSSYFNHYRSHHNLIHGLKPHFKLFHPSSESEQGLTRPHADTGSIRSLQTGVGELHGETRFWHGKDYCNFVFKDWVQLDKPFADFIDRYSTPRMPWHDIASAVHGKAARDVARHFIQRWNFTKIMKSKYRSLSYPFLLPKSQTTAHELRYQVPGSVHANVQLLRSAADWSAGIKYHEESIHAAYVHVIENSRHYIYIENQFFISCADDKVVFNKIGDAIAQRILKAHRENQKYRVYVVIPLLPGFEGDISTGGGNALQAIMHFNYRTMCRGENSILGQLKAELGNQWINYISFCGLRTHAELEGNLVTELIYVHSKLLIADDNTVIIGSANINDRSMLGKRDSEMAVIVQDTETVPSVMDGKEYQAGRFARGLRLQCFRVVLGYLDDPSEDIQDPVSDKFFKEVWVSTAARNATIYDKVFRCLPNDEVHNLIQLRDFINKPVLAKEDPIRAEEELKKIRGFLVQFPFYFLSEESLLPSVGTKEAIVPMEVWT
# Phospholipase D2 [23] = target: T3, Phospholipase D2 (Homo sapiens, UniProt O14939); assay: Discovery of PLD2 inhibitors using the Purified Enzyme Concentration Response Assay.; type: functional
# Phospholipase D1 [24] = target: T2, Phospholipase D1; assay: phospholipase D1 enzyme inhibition confirmation – biochemical, concentration response (AID 743390); type: functional
# Phospholipase D2 [25] = target: T3, Phospholipase D2; assay: PLD2 Cellular Concentration Response Study.; type: functional
# [26] = antimalarial activity against Dd2 parasites – SYBR Green fluorescence, erythrocytes, dry powder, set 2, dose response (AID 1159574); type: functional, cell-based
# [27] = antifungal growth inhibition under osmotic support – sorbitol, alamar blue, dry powder, set 3, mechanism study for C. neoformans lysis project, dose response (AID 743304); type: functional, organism-based
# cells [28] = details: HEK293
# [29] = microbe, parasite or virus in culture; type: functional; details: Mycobacterium tuberculosis
# [30] = CellTiter-Glo luminescence survival assay, SW480 colon tumor line, concentration-response curve, half-maximal inhibitory concentration (AID 1117338); type: functional
# [31] = Reduced DLD-1 viability, concentration-response, CellTiter-Glo luminescence (AID 1117352); type: functional
# [32] = cytotoxicity toward HT-29 cells – cell-based, CellTiter-Glo luminescence, IC50, dose response (AID 1117330); type: functional
# [33] = cytotoxicity toward Colo320 cells – cell-based, CellTiter-Glo luminescence, IC50, dose response (AID 1117334); type: functional; details: COLO 320
# [34] = RKO cell viability reduction, dose response, CellTiter-Glo luminescence (AID 1117322); type: functional
# [35] = SNU-C1 cell viability reduction, dose response, CellTiter-Glo luminescence (AID 1117323); type: functional, cell-based
# [36] = cytotoxicity toward HCT116 cells – cell-based, CellTiter-Glo luminescence, IC50, dose response (AID 1117332); type: functional; details: HCT-116
# [37] = Luminescence Cell-Based Dose Retest to Confirm Inhibitors of Cancer Stem Cells. [Related pubchem assays (depositor defined):AID2717, AID2721]; type: functional; details: Homo sapiens
# [38] = HCT116 cell viability decrease, GSK3B pretreatment – CellTiter-Glo, IC50, dose response (AID 1117339); type: functional; details: HCT-116
# T3 sequence (O14939 whole entry): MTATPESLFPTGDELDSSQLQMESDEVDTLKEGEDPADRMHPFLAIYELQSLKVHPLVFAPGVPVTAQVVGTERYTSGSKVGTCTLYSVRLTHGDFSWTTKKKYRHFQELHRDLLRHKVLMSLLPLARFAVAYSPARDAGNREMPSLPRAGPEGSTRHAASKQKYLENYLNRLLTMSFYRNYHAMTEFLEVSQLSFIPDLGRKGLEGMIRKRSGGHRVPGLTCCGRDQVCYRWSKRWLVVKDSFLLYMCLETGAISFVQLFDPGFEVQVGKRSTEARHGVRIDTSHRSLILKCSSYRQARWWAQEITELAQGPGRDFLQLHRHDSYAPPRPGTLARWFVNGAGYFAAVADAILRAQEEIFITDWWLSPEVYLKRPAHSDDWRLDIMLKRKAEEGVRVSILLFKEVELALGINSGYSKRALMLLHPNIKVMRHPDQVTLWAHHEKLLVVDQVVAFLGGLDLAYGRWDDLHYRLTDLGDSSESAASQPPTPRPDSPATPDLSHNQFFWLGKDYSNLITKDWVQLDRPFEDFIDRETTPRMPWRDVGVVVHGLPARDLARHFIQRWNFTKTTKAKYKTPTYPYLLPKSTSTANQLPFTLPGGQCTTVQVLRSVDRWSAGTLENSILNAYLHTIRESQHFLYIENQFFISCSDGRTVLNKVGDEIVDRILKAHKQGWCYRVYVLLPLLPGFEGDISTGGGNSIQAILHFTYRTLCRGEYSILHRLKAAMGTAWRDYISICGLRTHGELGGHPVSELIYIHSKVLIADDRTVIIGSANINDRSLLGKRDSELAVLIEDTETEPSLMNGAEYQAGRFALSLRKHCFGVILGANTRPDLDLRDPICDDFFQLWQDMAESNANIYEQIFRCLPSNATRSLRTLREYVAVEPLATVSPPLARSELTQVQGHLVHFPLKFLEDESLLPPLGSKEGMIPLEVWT
# Chain of NAD-dependent protein deacylase sirtuin-5, mitochondrial (Q9NXA8 whole entry): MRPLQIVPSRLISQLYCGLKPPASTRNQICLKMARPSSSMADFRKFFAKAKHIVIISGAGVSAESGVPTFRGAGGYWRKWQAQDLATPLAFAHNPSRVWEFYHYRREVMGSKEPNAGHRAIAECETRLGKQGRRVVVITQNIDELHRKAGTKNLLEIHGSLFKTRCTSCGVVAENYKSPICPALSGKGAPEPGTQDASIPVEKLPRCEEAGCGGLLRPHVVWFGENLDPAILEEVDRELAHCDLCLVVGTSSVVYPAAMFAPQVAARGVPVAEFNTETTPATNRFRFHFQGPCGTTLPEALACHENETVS
# Chain of Metabotropic glutamate receptor 5 (P31424 whole entry): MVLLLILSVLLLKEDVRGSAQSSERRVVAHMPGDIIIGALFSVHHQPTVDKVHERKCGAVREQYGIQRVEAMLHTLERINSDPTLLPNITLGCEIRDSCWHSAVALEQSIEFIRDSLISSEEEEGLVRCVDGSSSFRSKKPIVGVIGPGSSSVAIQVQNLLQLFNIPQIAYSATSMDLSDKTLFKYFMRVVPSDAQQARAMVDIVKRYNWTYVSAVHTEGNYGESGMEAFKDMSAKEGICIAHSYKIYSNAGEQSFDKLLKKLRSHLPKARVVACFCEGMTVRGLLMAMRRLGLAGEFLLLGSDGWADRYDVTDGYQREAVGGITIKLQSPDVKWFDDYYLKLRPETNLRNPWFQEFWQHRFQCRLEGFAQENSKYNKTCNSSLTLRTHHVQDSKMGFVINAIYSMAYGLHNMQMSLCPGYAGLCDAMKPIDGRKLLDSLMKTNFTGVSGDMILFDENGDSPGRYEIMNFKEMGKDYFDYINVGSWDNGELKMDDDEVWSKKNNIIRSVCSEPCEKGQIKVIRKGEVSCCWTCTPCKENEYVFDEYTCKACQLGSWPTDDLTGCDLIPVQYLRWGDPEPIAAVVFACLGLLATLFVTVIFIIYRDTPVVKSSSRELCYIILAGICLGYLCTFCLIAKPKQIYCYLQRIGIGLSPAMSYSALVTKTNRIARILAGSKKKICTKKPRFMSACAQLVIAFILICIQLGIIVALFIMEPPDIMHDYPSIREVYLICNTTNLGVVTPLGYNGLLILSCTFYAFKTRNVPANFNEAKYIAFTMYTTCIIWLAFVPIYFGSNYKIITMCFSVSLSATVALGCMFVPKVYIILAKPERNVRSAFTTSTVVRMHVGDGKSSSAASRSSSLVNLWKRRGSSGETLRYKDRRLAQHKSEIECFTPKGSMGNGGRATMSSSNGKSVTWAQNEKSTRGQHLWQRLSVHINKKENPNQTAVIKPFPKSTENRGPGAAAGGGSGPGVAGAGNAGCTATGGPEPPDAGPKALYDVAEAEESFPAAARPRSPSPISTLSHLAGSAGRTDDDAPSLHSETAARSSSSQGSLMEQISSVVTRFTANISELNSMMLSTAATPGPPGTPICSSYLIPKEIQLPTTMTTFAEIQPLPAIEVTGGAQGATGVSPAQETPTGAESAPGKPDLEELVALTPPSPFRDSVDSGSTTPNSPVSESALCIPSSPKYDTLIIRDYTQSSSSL
# Chain of Glutathione-S-transferase (Q26513 whole entry): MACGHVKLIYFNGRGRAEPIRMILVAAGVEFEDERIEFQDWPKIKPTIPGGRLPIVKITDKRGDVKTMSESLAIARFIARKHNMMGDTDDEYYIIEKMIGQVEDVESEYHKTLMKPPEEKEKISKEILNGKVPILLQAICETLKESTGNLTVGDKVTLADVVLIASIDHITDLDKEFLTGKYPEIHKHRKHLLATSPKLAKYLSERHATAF
smiles,measurement,setting,value
COc1ccc2c(c1)O[C@@H](c1ccc3c(c1)OCO3)[C@H](OC(=O)Nc1cc(OC)c(OC)c(OC)c1)C2=O,IC50,[1],> 100 µM (active)
same,CC50,[2],6.65 µM (active)
O=C(/C=C/c1ccccc1)Nc1scc(-c2ccccc2)c1C(=O)O,IC50,[3],7.9 µM (active)
O=C(Nc1c2c(nn1-c1ccc(F)cc1)C[S+]([O-])C2)C12CC3CC(CC(C3)C1)C2 (stereo not drawn),IC50,[4],> 100 µM (active)
CCC(C)(C)NC(=O)C(c1ccc(F)cc1)N(Cc1ccco1)C(=O)CCC(=O)Nc1ccccn1 (stereo not drawn),AC50,[5],> 30 µM (inactive)
O=C(NNC(=O)c1cc(OCC(F)(F)F)ccc1OCC(F)(F)F)c1cccc(C(F)(F)F)c1,CC50,[6],> 40 µM (active)
same,CC50,[7],> 40 µM (active)
COc1ccc(C2C3=C(CCCC3=O)N(CC(=O)O)C3=C2C(=O)CCC3)cc1Cl,EC50,[8],> 260 µM (inactive)
same,AC50,cells [9],> 52 µM (inactive)
same,AC50,[10],> 52 µM (inactive)
same,AC50,cells [11],2.66 µM (active)
Cc1ccc(S(=O)(=O)Nc2ccc3c4c(cccc24)CC3)c(C)c1,AC50,[12],0.567 µM (active)
CNC1=CC(=O)c2ccccc2C1=O,AC50,[13],> 70 µM (inactive)
same,AC50,[14],52.9 µM (active)
same,AC50,[15],62.6 µM (active)
same,AC50,[16],11.3 µM (active)
same,AC50,[17],17.2 µM (active)
CO[C@H]1CN(C)C(=O)c2cc(NC(=O)Nc3cc(Cl)cc(Cl)c3)ccc2OC[C@H](C)NC[C@@H]1C,AC50,[18],16.9 µM (active)
same,AC50,[19],> 52 µM (inactive)
same,AC50,[20],> 70 µM (inactive)
CS(=O)(=O)N(CC(=O)N1CCc2ccccc21)c1cc(C(F)(F)F)ccc1Cl,EC50,[21],10 µM (inconclusive)
O=C(NCCN1CCC2(CC1)C(=O)NCN2Cc1cccnc1)c1cc2ccccc2[nH]1,IC50,Phospholipase D1 [22],3.59 µM (active)
same,IC50,Phospholipase D2 [23],0.94 µM (active)
same,IC50,Phospholipase D1 [24],20 µM (active)
same,IC50,Phospholipase D2 [25],0.05 µM (active)
O=C(c1ccccc1F)N1CC(=O)N2[C@H](CO)[C@H](c3ccc(-c4cccnc4)cc3)[C@@H]2C1,AC50,[26],> 39 µM (inactive)
COCc1nc2ccccc2n1CCOc1ccc(C(C)(C)C)cc1,AC50,[27],52.3 µM (active)
same,AC50,cells [28],34 µM (active)
CC1=C(/C=C/C(C)=C/C=C/C(C)=C/C(=O)Nc2ccc(O)cc2)C(C)(C)CCC1 [FENRETINIDE],CC50,[29],14.4 µM (active)
same,IC50,[30],4.85 µM (active)
same,IC50,[31],9.49 µM (inactive)
same,IC50,[32],2.12 µM (active)
same,IC50,[33],3.24 µM (active)
same,IC50,[34],1.72 µM (active)
same,IC50,[35],6.69 µM (inactive)
same,IC50,[36],5.3 µM (inactive)
same,AC50,[37],1.04 µM (active)
same,IC50,[38],4.95 µM (active)

# Reference: ChEMBL document CHEMBL1201862, “PubChem BioAssay data set” (2004)
